Source: US12485108B2, “Method for treating fatty liver disease and/or steatohepatitis” (BEIJING TIDE PHARMACEUTICAL CO., LTD., priority 2019, dated 2025)

How the values were obtained:
[1] = test system: High Fat+High Cholesterol+High Sugar+Carbon Tetrachloride Induced Mouse Model; experiment: High fat+high cholesterol+high sugar+carbon tetrachloride induced mouse steatohepatitis model; assay type: in vivo, mice; conditions: three 21-day courses; for Collagen accumulation in liver tissue: Picrosirius red staining; for Collagen accumulation in liver tissue / Serum cholesterol level / Serum low density lipoprotein level: oral once a day, compound C 100 mg/kg, telmisartan 10 mg/kg; for Serum cholesterol level / Serum low density lipoprotein level: vs model group (compound C p<0.05)
Method: Mice which were 8-10 weeks old (purchased from Jiangsu GemPharmatech Co., Ltd.) were fed a western diet (a high fat+high cholesterol feed, purchased from Beijing Hfk Bioscience Co., Ltd.) and a high-sugar solution (23.1 g/L D-fructose and 18.9 g/L D-glucose) and injected intraperitoneally with carbon tetrachloride to induce a steatohepatitis model. Starting from day 7 (D7) of western diet+high-sugar solution feeding, the mice were injected intraperitoneally with 0.05 ml of 20% carbon tetrachloride once a week, for 12 weeks. Animals were divided into groups (8 animals in each group) on day 28: a model group (administrated with a vehicle composed of PEG400, Tween-80 and deionized water), a compound C (100 mg/kg) administration group, and a telmisartan (10 mg/kg) administration group. Starting from day 28, the vehicle, compound C and telmisartan were each administered orally once a day, for three 21-day treatment courses at one-week intervals. Meanwhile, a normal control group was set wherein the mice were fed a normal diet combined with normal drinking water. Peripheral blood was taken from animals 2 h after the final administration, and serum was isolated. The animals were euthanized, and their liver tissues were harvested. The serum was mainly used to measure the levels of cholesterol and low density lipoprotein. The liver tissues were stained with Picrosirius red to assess collagen accumulation, and the ratio of endothelial cells to macrophages was measured by flow cytometry to reflect liver damage.

[2] = test system: High Fat+High Cholesterol+Carbon Tetrachloride Induced Mouse Model; experiment: High fat+high cholesterol+carbon tetrachloride induced mouse steatohepatitis model; assay type: in vivo, mice; conditions: oral once a day, three 21-day courses, compound C 100 mg/kg, telmisartan 10 mg/kg; for Collagen accumulation in liver tissue: Picrosirius red staining, vs model group (compound C p<0.01; telmisartan p>0.05); for Serum cholesterol level / Serum low density lipoprotein level: vs model group (compound C p<0.01)
Excerpt: Mice which were 8-10 weeks old (purchased from Jiangsu GemPharmatech Co., Ltd.) were fed a western diet (a high fat+high cholesterol feed, purchased from Beijing Hfk Bioscience Co., Ltd.) and injected intraperitoneally with carbon tetrachloride to induce a steatohepatitis model. Experimental animals were randomly divided into 3 groups (8 animals in each group) according to their body weights: a model group (administrated with a vehicle composed of PEG400, Tween-80 and deionized water), a compound C (100 mg/kg) administration group, and a telmisartan (10 mg/kg) administration group. Starting from day 5 (D5) of western diet feeding, each group underwent an intraperitoneal injection of 0.05 ml of 20% CCl4 once a week, for 12 weeks. Starting from day 21, the vehicle, compound C and telmisartan were each administered orally once a day, for three 21-day treatment courses at one-week intervals. Meanwhile, a normal control group was set wherein the mice were fed a normal diet combined with normal drinking water. Peripheral blood was taken from animals 2 h after the final administration, and serum was isolated. The animals were euthanized and their liver tissues were harvested. The serum was mainly used to measure the levels of cholesterol and low density lipoprotein. The liver tissues were stained with Picrosirius red to assess collagen accumulation.

[3] = test system: Carbon Tetrachloride Induced Mouse Model; experiment: Carbon tetrachloride induced mouse model; assay type: in vivo, mice; conditions: Picrosirius red staining
Method: Mice which were 8-10 weeks old (purchased from Jiangsu GemPharmatech Co., Ltd.) were randomly divided into 4 groups (8 animals in each group) according to their body weights: a model group (administrated with a vehicle, 0.5% CMC-Na), a compound C (300 mg/kg) administration group, a compound C (100 mg/kg) administration group, and a telmisartan (10 mg/kg) administration group. Each mouse was injected intraperitoneally with 0.05 ml of 40% CCl4 twice a week, for 6 consecutive weeks. Starting from day 15, each group underwent an intragastric administration of the corresponding substance once a day, for 28 consecutive days. Meanwhile, a normal control group was set wherein the mice in this group were fed a normal diet combined with normal drinking water. Animals were euthanized 2 h after the final administration, and their liver tissues were harvested and stained with Picrosirius red to assess collagen accumulation.

[4] = test system: High Fat+Streptozotocin Induced Mouse Model; experiment: High fat+streptozotocin induced mouse steatohepatitis model; assay type: in vivo, mice; conditions: for Inhibition Rate (%) on Ballooning Degeneration of Liver Cells: H&E staining score of liver vs model group; for Inhibition Rate (%) on Ballooning Degeneration of Liver Cells / Inhibition Rate (%) on Collagen Accumulation in Liver Tissue / Body Weight / Liver Weight / Liver Weight/Body Weight / Inhibition Rate (%) on Fatty Degeneration: oral once a day for 21 days, compound C 100 mg/kg, telmisartan 50 mg/kg; for Inhibition Rate (%) on Collagen Accumulation in Liver Tissue: Picrosirius red staining score of liver vs model group; for Body Weight / Liver Weight / Liver Weight/Body Weight: at the end of the test; for Body Weight: after fasting; for Inhibition Rate (%) on Fatty Degeneration: oil red O staining score of liver vs model group
Method: Pregnant mice were purchased from Shanghai Lingchang Laboratory Animal Co., Ltd. Thirty 2-day-old newborn male mice were chosen for the test. Each mouse was injected with 200 μg of streptozotocin (STZ, purchased from Sigma) and fed a high-fat diet for 2 weeks from 4-week-old to induce a steatohepatitis model. Meanwhile, another ten mice were selected as a normal group where they were fed a normal diet without injection of STZ. After 2 weeks of high-fat diet feeding, the mice were divided into 3 groups according to their body weights and fasting blood glucose levels: a model group, a compound C administration group, and a telmisartan (purchased from TOKYO CHEMICAL) administration group. Each group underwent once-a-day oral administration of the corresponding substance for 21 consecutive days. The body weights of mice were recorded each day (see FIG. 1A and FIG. 1B), and after the final administration, the body weights of mice after fasting were recorded (see Table 2 and FIG. 2A and FIG. 2B). The animals were euthanized, and their liver tissues were harvested. The liver tissues were weighed and subjected to histologic scoring (blind assessment) in respect of ballooning degeneration, fatty degeneration, and collagen accumulation, etc. Histologic changes were assessed by hematoxylin and eosin (H&E) staining, oil red O staining and Picrosirius red staining of the liver tissues, where the H&E staining was used for assessing the ballooning degeneration of liver cells, the oil red O staining was used for reflecting the fatty degeneration of liver and the Picrosirius red staining was used for assessing collagen accumulation. Relevant scores are shown in FIG. 3A, FIG. 3B and FIG. 3C, and inhibition rates of various histologic changes are shown in Table 3.
Scoring criteria: fatty degeneration is scored on a scale from 0 to 3, where lesion area <5% is scored as 0, lesion area of 5-33% is scored as 1, lesion area of 33-66% is scored as 2 and lesion area >66% is scored as 3. Ballooning degeneration of liver cells is scored on a scale from 0 to 2, where no ballooning degeneration is scored as 0, little ballooning degeneration is a scored as 1, and ballooning degeneration of most cells or significant ballooning degeneration is scored as 2. Collagen accumulation is scored on a scale from 0 to 4 with reference to the scoring criteria reported in Brunt E M, et al., Hepatology (2011).
The inhibition rates (%) on fatty degeneration, ballooning degeneration of liver cells and collagen accumulation in liver tissue shown in Table 3 were calculated according to the following formulae, respectively (the normal group was scored as 0): Inhibition rate (%) on fatty degeneration=100%×(the average score of the model group−the average score of the administration group)/(the average score of the model group−the average score of the normal group) Inhibition rate (%) on ballooning degeneration of liver cells=100%×(the average score of the model group−the average score of the administration group)/(the average score of the model group−the average score of the normal group) Inhibition rate (%) on collagen accumulation in liver tissue=100%×(the average score of the model group−the average score of the administration group)/(the average score of the model group−the average score of the normal group)

[5] = test system: High Fat+High Cholesterol Diet and N-Diethylnitrosamine Induced Rat Model; experiment: High fat+high cholesterol diet and N-diethylnitrosamine induced rat model, NAS scoring; assay type: in vivo, SD rats; conditions: compound C administration groups (50 mg/kg and 100 mg/kg), intragastric once a day for 49 days; H&E staining; model group score 6
Method: Pregnant SD rats were purchased from Shanghai Jihui Laboratory Animal Care Co., Ltd, and neonatal rats obtained therefrom were used in this study. Forty male neonatal rats were chosen to receive a single injection of N-diethylnitrosamine (DEN, purchased from Sigma) at 2 weeks of age. After the neonatal rats were fed rat milk for 2 weeks, they were randomly divided into 4 groups (10 animals in each group) according to their body weights: a model group (0.5% CMC-Na), a compound C (50 mg/kg) administration group, a compound C (100 mg/kg) administration group, and an obeticholic acid (OCA, purchased from WuXi AppTec (Wuhan), 30 mg/kg) administration group. Each neonatal rat was fed a western diet (a high fat+high cholesterol feed, purchased from Trophic Animal Feed High-Tech Co., Ltd, China, Su Si certificate (2014) No. 06092) for 8 weeks. Meanwhile, another 8 male neonatal rats were selected as a normal group, which were fed rat milk for 4 weeks and then fed a normal diet instead of the high fat+high cholesterol diet. Starting from day 8 of high fat+high cholesterol diet feeding, the vehicle (0.5% CMC-Na), compound C and OCA were each administrated intragastrically once a day, for 49 consecutive days.
Animals were euthanized 2 h after the final administration, and their liver tissues were harvested. […]

Row | Compound | Collagen accumulation in liver tissue ([1]; vs model group (p<0.01)) | Proportion of endothelial cells in liver tissue ([1]; flow cytometry, vs model group (p<0.01), compound C 100 mg/kg oral once a day) | Proportion of macrophages in liver tissue ([1]; flow cytometry, vs model group, compound C 100 mg/kg oral once a day) | Serum cholesterol level [1] | Serum low density lipoprotein level [1] | Collagen accumulation in liver tissue [2] | Serum cholesterol level [2] | Serum low density lipoprotein level [2] | Collagen accumulation in liver tissue ([3]; 100 mg/kg intragastric once a day for 28 days, vs model group (p<0.001)) | Collagen accumulation in liver tissue ([3]; 300 mg/kg intragastric once a day for 28 days, vs model group (p<0.001)) | Therapeutic effect (fatty degeneration, ballooning degeneration, collagen accumulation of liver tissue) ([4]; 100 mg/kg oral once a day for 21 days) | Inhibition Rate (%) on Ballooning Degeneration of Liver Cells [4] [%] | Inhibition Rate (%) on Collagen Accumulation in Liver Tissue [4] [%] | Body Weight [4] [g] | Liver Weight [4] [mg] | Liver Weight/Body Weight [4] [%] | Inhibition Rate (%) on Fatty Degeneration [4] [%] | NAS score of liver tissue [5] | Collagen accumulation in liver tissue ([3]; 10 mg/kg intragastric once a day for 28 days, vs model group (p>0.05))
1 | Cn1c(C(=O)N2CC(F)(F)C2)cc2ccc(-c3nccc(Nc4ccc(-c5cn[nH]c5)cc4)n3)cc21 [Compound C] | significantly reduced | increased | reduced at a certain extent | significantly reduced | significantly reduced | significantly reduced | significantly reduced | significantly reduced | significantly reduced | significantly reduced | significant therapeutic effects | 60.00 | 44.44 | 17.1 ± 0.59 | 872.3 ± 17.91 | 5.1 ± 0.15 | 66.67 | about 4.2 | 
2 | CCCc1nc2c(C)cc(-c3nc4ccccc4n3C)cc2n1Cc1ccc(-c2ccccc2C(=O)O)cc1 [Telmisartan, telmisartan, reference compound] | significantly reduced |  |  | no effect | no effect | not inhibited | no effect | no effect |  |  |  | 11.12 | 38.27 | 15.7 ± 0.84 | 760.1 ± 48.78 | 4.9 ± 0.39 | −11.17 |  | not inhibited
